On the set-up of assay [1]: method as in PMID 35494787. The note with it: concentration 17.5 μM; ref [87]; cited from earlier work.
Assay [2] deals with NO production in LPS-induced RAW 264.7 cells. As to the kind of experiment: Nitric oxide assay (Griess reagent, nitrite). In kind it is cell-based. The note with it: PDENs 5, 10, 20 μg/mL or dexamethasone 1 μg/ml for 24 h, then LPS 50 ng/mL for 6 h. As for the experimental part:
RAW 264.7 cells were cultured in 96-well plates, with a density of 1 × 10^4 cells per well and incubated for 24 hours. Following this, they were exposed to various concentrations of PDENs (0, 5, 10, and 20 μg/ml) and dexamethasone (1 μg/ml) (Sigma-Aldrich, USA) for 24 hours. Thereafter, the cells were treated with LPS (50 ng/mL) (Sigma-Aldrich, USA) for an additional 6 hours. To measure the nitric oxide in the culture media, we utilized the Protocol from Griess Reagent Kit for Nitrite Determination (G-7921) (Thermo Fisher Scientific, USA). Briefly, 50 microliters of cell culture medium from each treatment were mixed with Griess reagent (1:1) and incubated for 15 minutes in the dark. The samples were measured at a wavelength of 540 nm using a microplate reader Bio-Rad iMark.
On the technique in general: Nitrite, measured by Griess reagent, commonly stands in for NO production.

On to `Cc1cc(C(C)(C)C)c(O)c(C(C)(C)C)c1` [butylated hydroxytoluene], for which the radical scavenging activity in assay [1] was 58.4%.
Take `CC1=C(O)C(=O)C(O)CO1` (stereo not drawn) [DDMP, 2,3-dihydro-3,5-dihydroxy-6-methyl-4H-pyran-4-one]: the radical scavenging activity in assay [1] is on record as 81.1%.
Turning to `C[C@@H]1C[C@H]2[C@@H]3CCC4=CC(=O)C=C[C@]4(C)[C@@]3(F)[C@@H](O)C[C@]2(C)[C@@]1(O)C(=O)CO` [dexamethasone], in assay [2], the “NO production versus LPS-induced cells” value is “significantly reduce NO production”.

The values are drawn from paper PMC11221653, “Isolation and characterization of plant-derived exosome-like nanoparticles from Carica papaya L. fruit and their potential as anti-inflammatory agent” (PLOS ONE, 2024).
